According to patent US20260293896A1, “PLANT GROWTH REGULATOR, PLANT GROWTH ACCELERATION METHOD, OR PLANT GROWTH-REGULATING PRODUCT” (KUREHA CORPORATION, priority 2022, published 2026):

The compounds below were run on rapeseed (assay: Evaluation Example 4: Comparison of Elongated Plant Height of Rapeseed). Details: petri dish, 5 mL, 24° C, 7th day after seeding, EGT 1 mM and/or component (A) 1 mM.
Assay type: in vivo
Protocol: The plant growth regulators of Examples 7 and 8 and Comparative Examples 10 to 12 were prepared so as to attain the concentrations indicated in Table 4 below. EGT, Asn and Lys were commercially available products, and pure water was used as a solvent.
(§1) Into a 9 cm petri dish on which filter paper was spread, 5 mL of the plant growth regulator was added. Ten seeds of rapeseed were sown per one petri dish. In a thermostatic chamber set at room temperature of 24° C., the light period was 16 hours and the dark period was 8 hours. The light conditions were set using a fluorescent lamp (PLANT FLEC, 40 W LED fluorescent lamp for plant growth, electric bulb color, available from Nippon Medical and Chemical Instruments Co., Ltd.) such that the light intensity was 5000 lx in the central part under irradiation with the fluorescent lamp.
(§2) The plant height of the rapeseed on the 7th day after seeding was evaluated.

Point of comparison: `C[N+](C)(C)[C@@H](Cc1c[nH]c(=S)[nH]1)C(=O)[O-]` [Comparative Example 10, L-(+)-ergothioneine], “Elongated plant height, ratio to untreated control” value (from here on “Elongated plant height, ratio”) 1.1. Against it:
- NC(=O)C[C@H](N)C(=O)O [compound 11, L-asparagine] — the same, 1.1
- NCCCC[C@H](N)C(=O)O [compound 12, L-lysine] — lower, 0.6

What follows are compounds tested on Arabidopsis thaliana (Col-0) (assay: Evaluation Example 2: Comparison of Seed Yield of Arabidopsis thaliana). Details: 50 mL added on 8th, 10th, 12th, 14th days after seeding; harvest 89th day; EGT 1 mM and/or component (A) 0.1 mM.
Assay type: in vivo
Protocol: The plant growth regulators of Examples 3 to 5 and Comparative Examples 4 to 7 were prepared so as to attain the concentrations indicated in Table 2 below. EGT, citric acid, GB and GSSG were commercially available products, and pure water was used as a solvent.
One individual Arabidopsis thaliana (Col-0) was sown in a plastic pot having a diameter of 60 mm and a height of 55 mm. Plastic deep dishes each having a diameter of 160 mm and a height of 28 mm were prepared, and six pots were respectively placed therein. As soil, 45 mL of vermiculite, 22.5 mL of granular soil (Kumiai horticultural soil), and 22.5 mL of vermiculite were placed in the pot in this order.
In a growth chamber set at room temperature of 22° C., the light period was 16 hours and the dark period was 8 hours. The light conditions were set such that the light intensity was 5000 lx in the central part under irradiation with the fluorescent lamp. Water supply was conducted from the bottom, and the water level was set at about 5 mm. Chemical treatment was started […]. More specifically, on the 8th, 10th, 12th, and 14th days after seeding, 50 mL of the plant growth regulator was added instead of water supply.
On the 89th day after seeding, seeds were harvested, and the seed yield was evaluated.

Point of comparison: `C[N+](C)(C)CC(=O)[O-]` [compound 6, glycine betaine], “Seed yield, ratio to untreated control” value 1.0. Against it:
- C[N+](C)(C)[C@@H](Cc1c[nH]c(=S)[nH]1)C(=O)[O-] [Comparative Example 4, L-(+)-ergothioneine] — higher, 1.2
- O=C(O)CC(O)(CC(=O)O)C(=O)O [Comparative Example 5, citric acid] — lower, 0.8

These compounds were tested on wheat (assay: Evaluation Example 17: Comparison of Elongated Plant Height of Wheat). Details: petri dish, 5 mL, 24° C, 7th day after seeding, EGT 1 mM and/or uracil 0.01, 0.1 or 10 mM.
Assay type: in vivo
Protocol: The plant growth regulators of Examples 39 to 41 and Comparative Examples 55 to 58 were prepared so as to attain the concentrations indicated in Table 17 below. EGT and uracil were commercially available products, and pure water was used as a solvent.
as §1, with “wheat” for “rapeseed”
(§3) The plant height of the wheat on the 7th day after seeding was evaluated.

Point of comparison: `C[N+](C)(C)[C@@H](Cc1c[nH]c(=S)[nH]1)C(=O)[O-]` [Comparative Example 55, L-(+)-ergothioneine], “Elongated plant height, ratio” value 1.1. Against it:
- O=c1cc[nH]c(=O)[nH]1 [compound 56, uracil] — the same, 1.1
- O=c1cc[nH]c(=O)[nH]1 [compound 57, uracil] — lower, 1.0
- O=c1cc[nH]c(=O)[nH]1 [compound 58, uracil] — lower, 1.0

These compounds were tested on wheat (assay: Evaluation Example 10: Comparison of Elongated Plant Height of Wheat). Details: petri dish, 5 mL, 24° C, 7th day after seeding, EGT 0.5 mM and/or component (A) 0.5 mM.
Assay type: in vivo
Protocol: The plant growth regulators of Examples 23 to 26 and Comparative Examples 32 to 36 were prepared so as to attain the concentrations indicated in Table 10 below. EGT, GABA, ornithine, carnitine and maleic acid were commercially available products, and pure water was used as a solvent.
as §1, with “wheat” for “rapeseed”
as §3

Point of comparison: `O=C(O)/C=C\C(=O)O` [compound 36, maleic acid], “Elongated plant height, ratio” value 0.9. Against it:
- C[N+](C)(C)[C@@H](Cc1c[nH]c(=S)[nH]1)C(=O)[O-] [Comparative Example 32, L-(+)-ergothioneine] — higher, 1.1
- NCCCC(=O)O [compound 33, γ-aminobutyric acid] — higher, 1.0
- NCCC[C@H](N)C(=O)O [compound 34, ornithine] — the same, 0.9
- C[N+](C)(C)CC(O)CC(=O)[O-] (stereo not shown) [compound 35, carnitine] — the same, 0.9

Each compound was assayed on tomato (Regina) (assay: Evaluation Example 14: Comparison of Number of Fruits and Total Fruit Weight of Tomato). Details: 50 mL on 32nd, 34th, 36th days, fruits ≥20 mm collected 75th day after seeding, EGT 0.1 mM and/or Arg 0.1 mM.
Assay type: in vivo
Protocol: The plant growth regulators of Example 35 and Comparative Examples 48 and 49 were prepared so as to attain the concentrations indicated in Table 14 below. EGT and Arg were commercially available products, and pure water was used as a solvent.
In a plastic pot having a diameter of 135 mm and a height of 110 mm, 1 kg of granular soil (Kumiai horticultural soil) was placed, and one individual tomato (Regina) was sown per one pot.
The tomato was managed in a greenhouse set at room temperature of 25° C. Chemical treatment was started 5 weeks after seeding. More specifically, on the 32nd, 34th, and 36th days after seeding, 50 mL of the plant growth regulator was added.
On the 75th day after seeding, fruits having a diameter of 20 mm or greater were collected, and the number and total weight of the collected fruits were evaluated.

Point of comparison: `N=C(N)NCCC[C@H](N)C(=O)O` [Comparative Example 49, L-arginine], “Number of fruits, ratio to untreated control” value 1.0. Against it:
- C[N+](C)(C)[C@@H](Cc1c[nH]c(=S)[nH]1)C(=O)[O-] [Comparative Example 48, L-(+)-ergothioneine] — higher, 1.2

Point of comparison: `C[N+](C)(C)[C@@H](Cc1c[nH]c(=S)[nH]1)C(=O)[O-]` [Comparative Example 48, L-(+)-ergothioneine], “Total fruit weight, ratio to untreated control” value 1.2. Against it:
- N=C(N)NCCC[C@H](N)C(=O)O [Comparative Example 49, L-arginine] — lower, 0.9

The compounds below were run on radish (Akamaru Hatsuka) (assay: Evaluation Example 13: Comparison of Aboveground Part Weight and Underground Part Weight of Radish). Details: 50 mL on 15th, 17th, 20th days, evaluated 27th day after seeding, EGT 0.5 mM and/or Glu 0.5 mM.
Assay type: in vivo
Protocol: The plant growth regulators of Example 34 and Comparative Examples 46 and 47 were prepared so as to attain the concentrations indicated in Table 13 below. EGT and Glu were commercially available products, and pure water was used as a solvent.
In a plastic pot having a diameter of 105 mm and a height of 90 mm, 450 g of granular soil (Kumiai horticultural soil) was placed, and one individual radish (Akamaru Hatsuka) was sown per one pot.
The radish was managed in a greenhouse set at room temperature of 25° C. Chemical treatment was started 2 weeks after seeding. More specifically, on the 15th, 17th, and 20th days after seeding, 50 mL of the plant growth regulator was added.
On the 27th day after seeding, the aboveground part weight and underground part weight were evaluated.

Point of comparison: `N[C@@H](CCC(=O)O)C(=O)O` [Comparative Example 47, L-glutamic acid], “Aboveground part weight, ratio to untreated control” value 1.1. Against it:
- C[N+](C)(C)[C@@H](Cc1c[nH]c(=S)[nH]1)C(=O)[O-] [Comparative Example 46, L-(+)-ergothioneine] — the same, 1.1

Point of comparison: `C[N+](C)(C)[C@@H](Cc1c[nH]c(=S)[nH]1)C(=O)[O-]` [Comparative Example 46, L-(+)-ergothioneine], “Underground part weight, ratio to untreated control” value 1.1. Against it:
- N[C@@H](CCC(=O)O)C(=O)O [Comparative Example 47, L-glutamic acid] — the same, 1.1

Each compound was assayed on rapeseed (assay: Evaluation Example 5: Comparison of Elongated Plant Height of Rapeseed). Details: petri dish, 5 mL, 25° C, 7th day after seeding, EGT 0.5 mM and/or component (A) 0.5 mM.
Assay type: in vivo
Protocol: The plant growth regulators of Examples 9 to 13 and Comparative Examples 13 to 18 were prepared so as to attain the concentrations indicated in Table 5 below. EGT, Gln, Trp, Met, Phe and acetic acid were commercially available products, and pure water was used as a solvent.
(§4) Into a 9 cm petri dish on which filter paper was spread, 5 mL of the plant growth regulator was added. Ten seeds of rapeseed were sown per one petri dish. In a growth chamber set at room temperature of 25° C., the light period was 16 hours and the dark period was 8 hours. The light conditions were set such that the light intensity was 5000 lx in the central part under irradiation with the fluorescent lamp.
as §2

Point of comparison: `N[C@@H](Cc1c[nH]c2ccccc12)C(=O)O` [compound 15, L-tryptophan], “Elongated plant height, ratio” value 0.5. Against it:
- C[N+](C)(C)[C@@H](Cc1c[nH]c(=S)[nH]1)C(=O)[O-] [Comparative Example 13, L-(+)-ergothioneine] — higher, 1.1
- NC(=O)CC[C@H](N)C(=O)O [compound 14, L-glutamine] — higher, 1.1
- CSCC[C@H](N)C(=O)O [compound 16, L-methionine] — higher, 1.0
- N[C@@H](Cc1ccccc1)C(=O)O [compound 17, L-phenylalanine] — higher, 1.1
- CC(=O)O [compound 18, acetic acid] — higher, 1.1

Each compound was assayed on rapeseed (assay: Evaluation Example 6: Comparison of Elongated Plant Height of Rapeseed). Details: petri dish, 5 mL, 25° C, 7th day after seeding, EGT 0.5 mM and/or component (A) 0.5 mM.
Assay type: in vivo
Protocol: The plant growth regulators of Examples 14 to 17 and Comparative Examples 19 to 23 were prepared so as to attain the concentrations indicated in Table 6 below. EGT, Leu, Val, Tyr and Ser were commercially available products, and pure water was used as a solvent.
as §4, §2

Point of comparison: `N[C@@H](Cc1ccc(O)cc1)C(=O)O` [compound 22, L-tyrosine], “Elongated plant height, ratio” value 1.0. Against it:
- C[N+](C)(C)[C@@H](Cc1c[nH]c(=S)[nH]1)C(=O)[O-] [Comparative Example 19, L-(+)-ergothioneine] — higher, 1.1
- CC(C)C[C@H](N)C(=O)O [compound 20, L-leucine] — the same, 1.0
- CC(C)[C@H](N)C(=O)O [compound 21, L-valine] — the same, 1.0
- N[C@@H](CO)C(=O)O [compound 23, L-serine] — the same, 1.0

These compounds were tested on wheat (assay: Evaluation Example 11: Comparison of Elongated Plant Height of Wheat). Details: petri dish, 5 mL, 24° C, 7th day after seeding, EGT 0.5 mM and/or component (A) 0.1 mM (vitamin D2 0.01 mM).
Assay type: in vivo
Protocol: The plant growth regulators of Examples 27 to 31 and Comparative Examples 37 to 42 were prepared so as to attain the concentrations indicated in Table 11 below. EGT, Met, His, Cys, 5-ALA and vitamin D2 were commercially available products, and pure water was used as a solvent.
as §1, with “wheat” for “rapeseed”
as §3

Point of comparison: `N[C@@H](CS)C(=O)O` [compound 40, L-cysteine], “Elongated plant height, ratio” value 1.0. Against it:
- C[N+](C)(C)[C@@H](Cc1c[nH]c(=S)[nH]1)C(=O)[O-] [Comparative Example 37, L-(+)-ergothioneine] — higher, 1.1
- CSCC[C@H](N)C(=O)O [compound 38, L-methionine] — lower, 0.8
- N[C@@H](Cc1c[nH]cn1)C(=O)O [compound 39, L-histidine] — the same, 1.0
- NCC(=O)CCC(=O)O [compound 41, 5-aminolevulinic acid] — lower, 0.9
- C=C1CC[C@H](O)C/C1=C/C=C1\CCC[C@]2(C)[C@@H]([C@H](C)/C=C/[C@H](C)C(C)C)CC[C@@H]12 [compound 42, vitamin D2] — lower, 0.9
